Earlier results in patent US20030073826A1 (priority 2001, published 2003).

Test system: bacteria
Details: U.S. Pat. No. 3,496,163, Example 2

Compound: CCC[C@@H]1C[C@@H](C(=O)NC(C(C)Cl)C2OC(SC)C(O)C(O)C2O)N(C)C1 (stereo partly shown) [clindamycin free base]
- antibacterial spectrum compared with the hydrochloride salt of clindamycin: same scope and magnitude
